Measurements taken from the OligoGym collection.
Where “and” joins values, the source holds several entries; their conditions need not be identical. Identical values can stand only once. After the bases stand the sugars from the 5' end (letter, count) and the backbone: PS all phosphorothioate, else s phosphorothioate and o phosphodiester by linkage. Methylation of C is not given here. e = 2'-O-(2-methoxyethyl) (MOE); k = constrained ethyl (cEt); d = 2'-deoxy (DNA)

Molecular target: IRF4
Details: ASO

## CTTGGCTGTGGGATGC (sugars k3 d10 k3, PS)
MM.1R, 1 µM
  target mRNA inhibition: 21%

## GGCCTTAGCCTTCCTG (sugars k3 d10 k3, PS)
SK-MEL-28, 4 µM
  target mRNA inhibition: 17%

## TCGGAGCGACCCAAAT (sugars k3 d10 k3, PS)
MM.1R, 1 µM
  target mRNA inhibition: 12%

## TTGAGGTTTTCCTAAA (sugars k3 d10 k3, PS)
SK-MEL-28, 4 µM
  target mRNA inhibition: 29%

## GAGATACTTGTACTGT (sugars k3 d10 k3, PS)
MM.1R, 0.0625 µM
  target mRNA inhibition: -2%
MM.1R, 0.25 µM
  target mRNA inhibition: 18%
MM.1R, 1 µM
  target mRNA inhibition: 49% and 57%
MM.1R, 4 µM
  target mRNA inhibition: 84%

## CGCGGTTGTAGTCCTG (sugars k3 d10 k3, PS)
SK-MEL-28, 4 µM
  target mRNA inhibition: 44%

## CGACAACTTTCCTGAA (sugars k3 d10 k3, PS)
SK-MEL-28, 4 µM
  target mRNA inhibition: 21%

## TTCCACACTGGATATG (sugars k3 d10 k3, PS)
SK-MEL-28, 4 µM
  target mRNA inhibition: 41%

## GACAGTGACTTGCATC (sugars k2 d9 e3 k2, PS)
MM.1R, 1 µM
  target mRNA inhibition: 24%

## GGCGCGCTCCCTTCCC (sugars k3 d10 k3, PS)
SK-MEL-28, 4 µM
  target mRNA inhibition: 10%

## TTATATACTGGTTGGT (sugars k3 d10 k3, PS)
SK-MEL-28, 4 µM
  target mRNA inhibition: 49%

## CAAGTGTCTAAAGTCC (sugars kddddddddddkekek, PS)
MM.1R, 1 µM
  target mRNA inhibition: 7% and 12%

## GGTAAACTGCCTTAGG (sugars k3 d10 k3, PS)
SK-MEL-28, 4 µM
  target mRNA inhibition: 25%

## TTCATGTAAAGTCTGC (sugars kkddddddddddkeke, PS)
MM.1R, 1 µM
  target mRNA inhibition: 49% and 28%

## CTGCAAATCCCTCTTG (sugars k3 d10 k3, PS)
SK-MEL-28, 4 µM
  target mRNA inhibition: -33%

## CCATGGGAGATCCGGC (sugars k3 d10 k3, PS)
SK-MEL-28, 4 µM
  target mRNA inhibition: 54%

## GCACATCAATGTTTTA (sugars kkddddddddddkeke, PS)
MM.1R, 1 µM
  target mRNA inhibition: 49% and 50%

## TTTAAGTCATGTGTCA (sugars k3 d10 k3, PS)
SK-MEL-28, 4 µM
  target mRNA inhibition: 50%

## ACACTTTTAGAGAGGA (sugars kkkddddddddkekek, PS)
MM.1R, 1 µM
  target mRNA inhibition: 15%

## GATGACTCCATGAGGT (sugars k3 d10 k3, PS)
SK-MEL-28, 4 µM
  target mRNA inhibition: 67%

## AGCATTTTATCATCCG (sugars kkkddddddddkekek, PS)
MM.1R, 1 µM
  target mRNA inhibition: 22%

## GTAGTATGAGAAACGG (sugars kkkdddddddddkeke, PS)
MM.1R, 1 µM
  target mRNA inhibition: 15%

## ACCTCAGTTTGTGAAG (sugars kkdddddddddkdkdk, PS)
MM.1R, 1 µM
  target mRNA inhibition: -3%

## ACGTGTGCTTGCCAAG (sugars kkddddddddddkeke, PS)
MM.1R, 1 µM
  target mRNA inhibition: 6% and 26%

## CTAATCCACAATCAGC (sugars k3 d10 k3, PS)
SK-MEL-28, 4 µM
  target mRNA inhibition: 45%

## AAAACTACTATTGTGG (sugars k3 d10 k3, PS)
SK-MEL-28, 4 µM
  target mRNA inhibition: 14%

## GGCCGGAGACCTTGAA (sugars k3 d10 k3, PS)
SK-MEL-28, 4 µM
  target mRNA inhibition: 3%

## ACACACCTGACAACCA (sugars k3 d10 k3, PS)
SK-MEL-28, 4 µM
  target mRNA inhibition: 36%

## TGCAAGTATGTAGCAA (sugars k3 d10 k3, PS)
SK-MEL-28, 4 µM
  target mRNA inhibition: 3%

## TAGCAGAGGTTCTACC (sugars k3 d10 k3, PS)
SK-MEL-28, 4 µM
  target mRNA inhibition: 26%

## AGTAAGAGGGCAGTCA (sugars k3 d10 k3, PS)
SK-MEL-28, 4 µM
  target mRNA inhibition: 50%

## TCAGTTTGTGAAGCAT (sugars kkkdddddddddkeke, PS)
MM.1R, 1 µM
  target mRNA inhibition: 53%

## TACCATATTGGAAACC (sugars k3 d10 k3, PS)
SK-MEL-28, 4 µM
  target mRNA inhibition: 48%

## CCCTAAGTTTAATTTA (sugars k3 d10 k3, PS)
SK-MEL-28, 4 µM
  target mRNA inhibition: -3%

## ATGTTAGCCAATTCCT (sugars kkddddddddddkeke, PS)
MM.1R, 1 µM
  target mRNA inhibition: 20% and 15%

## GGGCTTCCTAGGTTTC (sugars k3 d10 k3, PS)
SK-MEL-28, 4 µM
  target mRNA inhibition: 39%

## TCCGAAAAGACTGGAG (sugars k3 d10 k3, PS)
MM.1R, 1 µM
  target mRNA inhibition: -7%

## AAACGGCCTGGAGGTG (sugars k3 d10 k3, PS)
MM.1R, 1 µM
  target mRNA inhibition: 11%

## AAAGACAAGTGCCCAT (sugars k3 d10 k3, PS)
SK-MEL-28, 4 µM
  target mRNA inhibition: 24%

## GTACATGGCAGTGGAG (sugars k3 d10 k3, PS)
SK-MEL-28, 4 µM
  target mRNA inhibition: 56%

## AGGTAAATCTTCACTG (sugars k3 d10 k3, PS)
SK-MEL-28, 4 µM
  target mRNA inhibition: 54%

## GAAGGATGATCAGCTT (sugars k3 d10 k3, PS)
SK-MEL-28, 4 µM
  target mRNA inhibition: 26%

## GATGTGATAGCTGAGC (sugars kddddddddddkekek, PS)
MM.1R, 1 µM
  target mRNA inhibition: 50%

## TCTATAGTGTTCCAGG (sugars kddddddddddkekek, PS)
MM.1R, 1 µM
  target mRNA inhibition: 16%

## ACCTAATCTACAACAA (sugars k3 d10 k3, PS)
SK-MEL-28, 4 µM
  target mRNA inhibition: 17%

## GCGCCCAATCACCTTC (sugars k3 d10 k3, PS)
SK-MEL-28, 4 µM
  target mRNA inhibition: 3%

## GAGGTTTTCCTAAATA (sugars k3 d10 k3, PS)
SK-MEL-28, 0.185 µM
  target mRNA inhibition: 20%
SK-MEL-28, 4 µM
  target mRNA inhibition: 69%
SK-MEL-28, 5 µM
  target mRNA inhibition: 75%
SK-MEL-28, 15 µM
  target mRNA inhibition: 89%

## GTTGGCTGGTCTTTGT (sugars k2 d9 e3 k2, PS)
MM.1R, 1 µM
  target mRNA inhibition: 24%

## ACAGCCGAAGCATTTT (sugars k3 d10 k3, PS)
MM.1R, 1 µM
  target mRNA inhibition: 8%

## TGATGTGATAGCTGAG (sugars kkdddddddddekeke, PS)
MM.1R, 1 µM
  target mRNA inhibition: 60%

## TGTTACCGATGCTTCA (sugars kkdddddddddekeke, PS)
MM.1R, 1 µM
  target mRNA inhibition: 35% and 49%

## CTTTGAGGCTGCGAAG (sugars k3 d10 k3, PS)
MM.1R, 1 µM
  target mRNA inhibition: 2%

## CTGCTCACTAAGCTTG (sugars k3 d10 k3, PS)
SK-MEL-28, 0.185 µM
  target mRNA inhibition: 6% and 5% and -1%
SK-MEL-28, 4 µM
  target mRNA inhibition: 73%
SK-MEL-28, 15 µM
  target mRNA inhibition: 78% and 80% and 94%

## GTGTGCTTGCCAAGCC (sugars kkdddddddddekeke, PS)
MM.1R, 1 µM
  target mRNA inhibition: 17% and 19%

## CAATATGCTTCCAACC (sugars k3 d10 k3, PS)
SK-MEL-28, 4 µM
  target mRNA inhibition: -15%

## CATTACTTAGACATTA (sugars k3 d10 k3, PS)
SK-MEL-28, 4 µM
  target mRNA inhibition: 19%

## TGATAGCTGAGCTGAT (sugars kkddddddddddkeke, PS)
MM.1R, 1 µM
  target mRNA inhibition: -17%

## AGCAAAGCAAGTGTCT (sugars k3 d10 k3, PS)
SK-MEL-28, 4 µM
  target mRNA inhibition: 58%

## AGCACCGTGTGGAAAG (sugars k3 d10 k3, PS)
SK-MEL-28, 4 µM
  target mRNA inhibition: 57%

## GCTTACTGTGATTCTG (sugars k3 d10 k3, PS)
SK-MEL-28, 4 µM
  target mRNA inhibition: 34%

## GAAGTTTACACTGGAT (sugars kkkddddddddkekek, PS)
MM.1R, 1 µM
  target mRNA inhibition: 52%

## TTGTCTGGCTAGCAGA (sugars k3 d10 k3, PS)
SK-MEL-28, 4 µM
  target mRNA inhibition: 45%

## AGGTTGCCGAGATATA (sugars k3 d10 k3, PS)
MM.1R, 1 µM
  target mRNA inhibition: 54% and 67%

## GTAACAATACTGTAAG (sugars k3 d10 k3, PS)
SK-MEL-28, 4 µM
  target mRNA inhibition: 55%

## TTCGAGGTGATTCTCG (sugars k3 d10 k3, PS)
SK-MEL-28, 4 µM
  target mRNA inhibition: 5%

## TATAACTTCTCCTGTG (sugars k3 d10 k3, PS)
MM.1R, 1 µM
  target mRNA inhibition: 7%

## GGTCACAGGTAAGGGC (sugars k3 d10 k3, PS)
SK-MEL-28, 4 µM
  target mRNA inhibition: 25%

## TGAACGGAAGTTTACA (sugars k3 d10 k3, PS)
MM.1R, 1 µM
  target mRNA inhibition: 14%

## GTCTTTGGGATTCTAT (sugars k3 d10 k3, PS)
SK-MEL-28, 4 µM
  target mRNA inhibition: 65%

## GGAATTTCCATTGGAG (sugars k3 d10 k3, PS)
SK-MEL-28, 4 µM
  target mRNA inhibition: 44%

## CCACACAAGTCTTAGG (sugars k3 d10 k3, PS)
MM.1R, 1 µM
  target mRNA inhibition: 15%

## ACCCACCCAGTGTCTG (sugars k3 d10 k3, PS)
SK-MEL-28, 4 µM
  target mRNA inhibition: 18%

## AACCATGTTCCTGAAG (sugars k3 d10 k3, PS)
SK-MEL-28, 4 µM
  target mRNA inhibition: 41%

## GAGGACTTATTTGTGG (sugars k3 d10 k3, PS)
MM.1R, 1 µM
  target mRNA inhibition: 22%

## ACTTTTAGAGAGGAGA (sugars kkdddddddddkekek, PS)
MM.1R, 1 µM
  target mRNA inhibition: 40%

## GCAAGATGACTCCATG (sugars k3 d10 k3, PS)
SK-MEL-28, 4 µM
  target mRNA inhibition: 63%
